Measurements taken from ChEMBL document CHEMBL4406839, “Design, synthesis and biological evaluation of a new series of thiazolyl-pyrazolines as dual EGFR and HER2 inhibitors” (Eur J Med Chem, 2019).

Legend:
A-375 = test: Antiproliferative activity aganist human A375 cells incubated for 72 hrs by MTT assay; format: functional, cell-based; conditions: A-375, 72 h
A549 [1] = test: Antiproliferative activity aganist human A549 cells incubated for 72 hrs by MTT assay; format: functional, cell-based; conditions: A549, 72 h
MCF7 [2] = test: Antiproliferative activity aganist human MCF7 cells incubated for 72 hrs by MTT assay; format: functional, cell-based; conditions: MCF7, 72 h
[3] = target: Insulin-like growth factor 1 receptor (Homo sapiens, UniProt P08069); test: Inhibition of recombinant human N-terminal His-tagged IGF1R (960 to end residues) expressed in baculovirus infected Sf9 insect cells using IGF1Rtide as substrate incubated for 1 hr by ADP-Glo assay
Insulin-like growth factor 1 receptor, sequence (P08069 31-736 limits assumed): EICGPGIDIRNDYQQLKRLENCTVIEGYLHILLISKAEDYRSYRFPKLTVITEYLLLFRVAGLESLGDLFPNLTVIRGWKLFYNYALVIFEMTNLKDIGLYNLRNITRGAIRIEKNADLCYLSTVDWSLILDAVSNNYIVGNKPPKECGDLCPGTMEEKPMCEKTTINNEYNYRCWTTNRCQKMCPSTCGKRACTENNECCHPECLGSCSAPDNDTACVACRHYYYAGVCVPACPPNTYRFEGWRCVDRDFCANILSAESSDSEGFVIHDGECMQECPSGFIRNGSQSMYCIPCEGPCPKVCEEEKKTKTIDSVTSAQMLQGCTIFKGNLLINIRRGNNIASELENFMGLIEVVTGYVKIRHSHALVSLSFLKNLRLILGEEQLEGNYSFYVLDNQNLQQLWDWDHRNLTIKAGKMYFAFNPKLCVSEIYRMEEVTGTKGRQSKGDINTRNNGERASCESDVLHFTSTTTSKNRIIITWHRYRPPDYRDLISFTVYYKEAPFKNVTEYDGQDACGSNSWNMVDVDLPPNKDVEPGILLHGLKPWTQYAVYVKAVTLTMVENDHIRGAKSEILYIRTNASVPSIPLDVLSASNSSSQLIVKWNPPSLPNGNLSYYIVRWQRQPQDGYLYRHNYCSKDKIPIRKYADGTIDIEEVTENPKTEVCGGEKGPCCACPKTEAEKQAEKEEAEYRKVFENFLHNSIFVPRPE
Insulin-like growth factor 1 receptor, sequence (P08069 741-1367 limits assumed): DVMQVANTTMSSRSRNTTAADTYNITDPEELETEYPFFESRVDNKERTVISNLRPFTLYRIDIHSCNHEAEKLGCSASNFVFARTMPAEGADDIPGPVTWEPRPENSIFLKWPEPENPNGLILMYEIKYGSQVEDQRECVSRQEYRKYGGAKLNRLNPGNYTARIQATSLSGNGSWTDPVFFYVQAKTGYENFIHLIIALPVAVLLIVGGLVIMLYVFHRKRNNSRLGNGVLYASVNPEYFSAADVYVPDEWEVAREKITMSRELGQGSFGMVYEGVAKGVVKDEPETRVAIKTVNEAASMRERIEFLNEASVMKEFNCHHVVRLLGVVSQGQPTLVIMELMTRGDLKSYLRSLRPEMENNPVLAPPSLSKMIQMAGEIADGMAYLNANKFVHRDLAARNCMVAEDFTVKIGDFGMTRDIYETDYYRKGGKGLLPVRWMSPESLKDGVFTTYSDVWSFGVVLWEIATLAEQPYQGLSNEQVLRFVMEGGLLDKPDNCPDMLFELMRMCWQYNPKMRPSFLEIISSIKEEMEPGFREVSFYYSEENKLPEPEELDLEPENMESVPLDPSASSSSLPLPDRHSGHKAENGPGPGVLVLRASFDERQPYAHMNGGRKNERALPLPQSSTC

[4] = target: Receptor tyrosine-protein kinase erbB-2 (Homo sapiens, UniProt P04626); test: Inhibition of recombinant human N-terminal GST-tagged HER2 (676 to end residues) expressed in baculovirus infected Sf9 insect cells using Poly (4:1 Glu, Tyr) peptide as substrate incubated for 1 hr by ADP-Glo assay
Receptor tyrosine-protein kinase erbB-2, sequence (P04626 whole entry): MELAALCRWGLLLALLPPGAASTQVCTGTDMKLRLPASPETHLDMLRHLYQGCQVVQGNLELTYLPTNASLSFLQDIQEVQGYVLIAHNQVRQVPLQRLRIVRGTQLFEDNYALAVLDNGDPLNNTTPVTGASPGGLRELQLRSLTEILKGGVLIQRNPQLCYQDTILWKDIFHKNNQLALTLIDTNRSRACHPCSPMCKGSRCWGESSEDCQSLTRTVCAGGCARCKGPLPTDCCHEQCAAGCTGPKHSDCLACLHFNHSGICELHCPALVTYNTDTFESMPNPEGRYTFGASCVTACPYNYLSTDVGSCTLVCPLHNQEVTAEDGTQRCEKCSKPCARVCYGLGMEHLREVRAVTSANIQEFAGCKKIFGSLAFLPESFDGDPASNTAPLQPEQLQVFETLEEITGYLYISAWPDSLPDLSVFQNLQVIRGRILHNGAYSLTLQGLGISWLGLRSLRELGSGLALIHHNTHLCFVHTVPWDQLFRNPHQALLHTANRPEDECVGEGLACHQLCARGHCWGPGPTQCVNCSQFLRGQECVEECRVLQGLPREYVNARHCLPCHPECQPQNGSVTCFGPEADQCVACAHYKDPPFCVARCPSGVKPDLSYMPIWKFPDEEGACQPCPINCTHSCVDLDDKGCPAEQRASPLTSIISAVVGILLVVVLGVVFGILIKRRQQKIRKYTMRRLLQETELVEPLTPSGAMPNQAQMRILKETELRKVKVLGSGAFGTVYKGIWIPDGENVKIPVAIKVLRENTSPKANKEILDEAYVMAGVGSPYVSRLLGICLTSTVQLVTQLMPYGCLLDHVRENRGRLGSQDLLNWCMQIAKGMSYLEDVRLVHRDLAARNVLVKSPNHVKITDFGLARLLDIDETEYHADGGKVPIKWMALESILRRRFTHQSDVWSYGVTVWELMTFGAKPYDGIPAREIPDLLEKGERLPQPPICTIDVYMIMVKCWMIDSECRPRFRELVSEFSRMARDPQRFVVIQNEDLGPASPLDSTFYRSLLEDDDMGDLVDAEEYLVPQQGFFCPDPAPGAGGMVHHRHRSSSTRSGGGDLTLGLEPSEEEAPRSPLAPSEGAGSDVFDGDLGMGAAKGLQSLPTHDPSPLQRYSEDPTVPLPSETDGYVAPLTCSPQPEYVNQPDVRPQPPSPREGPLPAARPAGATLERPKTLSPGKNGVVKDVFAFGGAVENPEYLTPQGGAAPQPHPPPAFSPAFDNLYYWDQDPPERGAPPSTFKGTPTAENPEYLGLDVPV

Jurkat = test: Antiproliferative activity aganist human Jurkat cells incubated for 72 hrs by MTT assay; format: functional, cell-based
Insulin receptor = Insulin receptor (Homo sapiens, UniProt P06213); test: Inhibition of recombinant human N-terminal GST-tagged INSR (1011 to end residues) expressed in baculovirus infected Sf9 insect cells using Axltide as substrate incubated for 1 hr by ADP-Glo assay
A549 [5] = test: Induction of apoptosis in human A549 cells assessed as increase in necrosis cells at IC50 incubated for 24 hrs by Annexin V-FITC/ethidium homodimer 3 staining based fluorescence microscopic method relative to control; format: functional
A549 [6] = test: Induction of apoptosis in human A549 cells at IC50 incubated for 24 hrs by Annexin V-FITC/ethidium homodimer 3 staining based fluorescence microscopic method relative to control; format: functional
PBMC = test: Cytotoxicity against human PBMC cells assessed as reduction in cell viability incubated for 72 hrs by MTT assay; format: cell-based
MCF7 [7] = test: Induction of apoptosis in human MCF7 cells assessed as increase in apoptosis/necrosis cells at IC50 incubated for 24 hrs by Annexin V-FITC/ethidium homodimer 3 staining based fluorescence microscopic method relative to control; format: functional
[8] = target: Platelet-derived growth factor receptor alpha (Homo sapiens, UniProt P16234); test: Inhibition of recombinant human N-terminal GST-tagged PDGFRalpha (550 to end residues) expressed in baculovirus infected Sf9 insect cells using Poly (4:1 Glu, Tyr) peptide as substrate incubated for 1 hr by ADP-Glo assay
[9] = target: Receptor tyrosine-protein kinase erbB-4 (Homo sapiens, UniProt Q15303); test: Inhibition of recombinant human N-terminal GST-tagged HER4 (682 to 993 residues) expressed in baculovirus infected Sf9 insect cells using Poly (4:1 Glu, Tyr) peptide as substrate incubated for 1 hr by ADP-Glo assay
[10] = target: Vascular endothelial growth factor receptor 2 (Homo sapiens, UniProt P35968); test: Inhibition of recombinant human N-terminal GST-tagged KDR (789 to end residues) expressed in baculovirus infected Sf9 insect cells using Poly (4:1 Glu, Tyr) peptide as substrate incubated for 1 hr by ADP-Glo assay
Vascular endothelial growth factor receptor 2, sequence (P35968 whole entry): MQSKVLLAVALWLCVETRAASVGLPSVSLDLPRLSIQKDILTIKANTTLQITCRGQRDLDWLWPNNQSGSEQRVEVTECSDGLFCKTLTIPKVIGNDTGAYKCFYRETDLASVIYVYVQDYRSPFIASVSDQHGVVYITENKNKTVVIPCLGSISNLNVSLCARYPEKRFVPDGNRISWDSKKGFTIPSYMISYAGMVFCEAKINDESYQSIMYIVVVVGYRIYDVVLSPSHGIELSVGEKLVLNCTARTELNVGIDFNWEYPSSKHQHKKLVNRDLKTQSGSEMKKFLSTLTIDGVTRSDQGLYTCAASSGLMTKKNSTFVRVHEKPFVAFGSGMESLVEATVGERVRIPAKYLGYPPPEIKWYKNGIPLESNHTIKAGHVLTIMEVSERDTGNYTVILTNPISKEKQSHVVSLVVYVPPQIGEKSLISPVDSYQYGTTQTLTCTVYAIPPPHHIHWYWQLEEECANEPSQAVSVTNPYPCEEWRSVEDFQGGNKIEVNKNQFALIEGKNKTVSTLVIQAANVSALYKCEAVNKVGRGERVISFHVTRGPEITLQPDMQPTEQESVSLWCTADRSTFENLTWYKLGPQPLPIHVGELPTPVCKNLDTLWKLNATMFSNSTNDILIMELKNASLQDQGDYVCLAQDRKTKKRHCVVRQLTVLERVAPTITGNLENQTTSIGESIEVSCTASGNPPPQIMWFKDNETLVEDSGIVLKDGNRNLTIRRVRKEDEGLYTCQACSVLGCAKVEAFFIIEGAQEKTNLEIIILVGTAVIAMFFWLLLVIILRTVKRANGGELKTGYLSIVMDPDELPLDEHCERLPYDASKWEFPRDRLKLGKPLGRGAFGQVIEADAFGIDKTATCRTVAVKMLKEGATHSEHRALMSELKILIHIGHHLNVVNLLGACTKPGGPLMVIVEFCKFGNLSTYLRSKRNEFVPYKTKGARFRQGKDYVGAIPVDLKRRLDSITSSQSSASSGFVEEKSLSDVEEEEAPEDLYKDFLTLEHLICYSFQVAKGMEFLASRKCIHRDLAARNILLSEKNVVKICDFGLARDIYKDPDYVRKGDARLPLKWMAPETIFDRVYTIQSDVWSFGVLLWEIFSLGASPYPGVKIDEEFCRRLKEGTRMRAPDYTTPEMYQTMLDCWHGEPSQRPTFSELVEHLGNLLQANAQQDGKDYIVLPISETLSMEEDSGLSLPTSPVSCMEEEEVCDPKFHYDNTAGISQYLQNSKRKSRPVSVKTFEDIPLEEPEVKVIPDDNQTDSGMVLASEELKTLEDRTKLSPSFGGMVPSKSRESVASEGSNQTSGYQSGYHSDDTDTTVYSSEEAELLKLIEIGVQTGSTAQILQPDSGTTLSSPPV

[11] = Selectivity index, ratio of IC50 for human PBMC cells to IC50 for human Jurkat cells; format: toxicity; conditions: PBMC cells and Jurkat cells, read-out: Ratio IC50
MCF7 [12] = test: Induction of apoptosis in human MCF7 cells at IC50 incubated for 24 hrs by Annexin V-FITC/ethidium homodimer 3 staining based fluorescence microscopic method relative to control; format: functional
[13] = target: Platelet-derived growth factor receptor beta (Homo sapiens, UniProt P09619); test: Inhibition of recombinant human N-terminal GST-tagged PDGFRbeta (557 to end residues) expressed in baculovirus infected Sf9 insect cells using Poly (4:1 Glu, Tyr) peptide as substrate incubated for 1 hr by ADP-Glo assay
Platelet-derived growth factor receptor beta, sequence (P09619 whole entry): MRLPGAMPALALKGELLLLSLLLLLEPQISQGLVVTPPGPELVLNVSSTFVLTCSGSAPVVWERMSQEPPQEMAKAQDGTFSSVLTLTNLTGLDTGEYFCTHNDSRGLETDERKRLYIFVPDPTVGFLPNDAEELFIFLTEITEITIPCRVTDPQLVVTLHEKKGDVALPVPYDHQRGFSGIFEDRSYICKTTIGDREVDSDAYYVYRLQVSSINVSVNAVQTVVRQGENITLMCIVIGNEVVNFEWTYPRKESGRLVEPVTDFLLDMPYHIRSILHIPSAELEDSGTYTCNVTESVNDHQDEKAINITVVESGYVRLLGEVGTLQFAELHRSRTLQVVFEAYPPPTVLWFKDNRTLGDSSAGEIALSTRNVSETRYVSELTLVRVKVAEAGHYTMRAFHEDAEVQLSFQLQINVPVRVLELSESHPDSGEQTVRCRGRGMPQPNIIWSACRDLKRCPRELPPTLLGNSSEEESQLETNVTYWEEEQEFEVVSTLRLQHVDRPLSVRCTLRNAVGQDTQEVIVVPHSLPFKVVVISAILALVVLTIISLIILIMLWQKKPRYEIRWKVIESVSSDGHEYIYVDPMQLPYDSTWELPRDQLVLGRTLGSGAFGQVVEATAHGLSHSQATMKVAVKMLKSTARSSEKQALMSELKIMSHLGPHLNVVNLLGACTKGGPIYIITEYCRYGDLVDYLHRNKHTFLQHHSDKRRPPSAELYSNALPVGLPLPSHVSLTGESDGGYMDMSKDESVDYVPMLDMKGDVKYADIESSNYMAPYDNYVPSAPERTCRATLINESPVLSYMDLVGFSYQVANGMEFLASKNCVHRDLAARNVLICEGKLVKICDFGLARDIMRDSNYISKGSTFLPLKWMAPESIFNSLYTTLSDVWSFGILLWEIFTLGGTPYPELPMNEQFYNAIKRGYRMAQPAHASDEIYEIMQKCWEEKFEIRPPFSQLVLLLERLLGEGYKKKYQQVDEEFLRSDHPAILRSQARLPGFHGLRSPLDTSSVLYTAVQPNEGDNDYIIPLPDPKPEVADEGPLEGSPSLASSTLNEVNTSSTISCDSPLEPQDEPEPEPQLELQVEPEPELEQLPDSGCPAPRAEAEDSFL

A549 [14] = test: Induction of apoptosis in human A549 cells assessed as increase in apoptosis/necrosis cells at IC50 incubated for 24 hrs by Annexin V-FITC/ethidium homodimer 3 staining based fluorescence microscopic method relative to control; format: functional
MCF7 [15] = test: Induction of apoptosis in human MCF7 cells assessed as increase in necrosis cells at IC50 incubated for 24 hrs by Annexin V-FITC/ethidium homodimer 3 staining based fluorescence microscopic method relative to control; format: functional
[16] = target: Epidermal growth factor receptor (Homo sapiens, UniProt P00533); test: Inhibition of recombinant human N-terminal GST-tagged EGFR (695 to end residues) expressed in baculovirus infected Sf9 insect cells using Poly (4:1 Glu, Tyr) peptide as substrate incubated for 1 hr by ADP-Glo assay

SMILES | IC50 (A-375) [µM] | IC50 (A549 [1]) [µM] | IC50 (MCF7 [2]) [µM] | further results
Clc1ccc(C2CC(c3ccc(N4CCOCC4)cc3)=NN2c2nc(-c3ccccc3)cs2)cc1 (stereo not drawn) | > 100 | 76.5 | 52.1 | 
Clc1ccc(C2CC(c3ccc(N4CCOCC4)cc3)=NN2c2nc(-c3ccc4ccccc4c3)cs2)cc1 (stereo not drawn) | > 100 | > 100 | > 100 | 
Clc1ccc(C2CC(c3ccc(N4CCCCC4)cc3)=NN2c2nc(-c3ccccc3)cs2)cc1 (stereo not drawn) | 65.8 | 64.2 | 28.4 | 
FC(F)(F)c1ccc(-c2csc(N3N=C(c4ccc(N5CCOCC5)cc4)CC3c3ccc(Cl)cc3)n2)cc1 (stereo not drawn) | > 100 | 39.3 | > 100 | 
Clc1ccc(C2CC(c3ccc(N4CCOCC4)cc3)=NN2c2nc(-c3ccc(Br)cc3)cs2)cc1 (stereo not drawn) | > 100 | 94.3 | 70.6 | 
N#Cc1ccc(-c2csc(N3N=C(c4ccc(N5CCOCC5)cc4)CC3c3ccc(Cl)cc3)n2)cc1 (stereo not drawn) | 53.5 | 10.8 | 8.05 | IC50 [3]: 10.3 µM; IC50 [4]: 2.28 µM; IC50 (Jurkat): 41 µM; IC50 (Insulin receptor): > 30 µM; Activity (A549 [5]): 13%; Activity (A549 [6]): 68%; IC50 (PBMC): 299 µM; Activity (MCF7 [7]): 32%; IC50 [8]: > 30 µM; IC50 [9]: 4.68 µM; IC50 [10]: 10.8 µM; selectivity ratio [11]: > 10; Activity (MCF7 [12]): 51%; IC50 [13]: > 30 µM; Activity (A549 [14]): 19%; Activity (MCF7 [15]): 27%
COc1ccc(-c2csc(N3N=C(c4ccc(N5CCOCC5)cc4)CC3c3ccc(Cl)cc3)n2)cc1 (stereo not drawn) | > 100 | > 100 | > 100 | 
NC(=S)N1N=C(c2ccc(N3CCOCC3)cc2)CC1c1ccc(Cl)cc1 (stereo not drawn) | > 100 | > 100 | 37.4 | 
CS(=O)(=O)c1ccc(-c2csc(N3N=C(c4ccc(N5CCOCC5)cc4)CC3c3ccc(Cl)cc3)n2)cc1 (stereo not drawn) | > 100 | 10.7 | 67.2 | 
N#Cc1ccc(-c2csc(N3N=C(c4ccc(N5CCCCC5)cc4)CC3c3ccc(Cl)cc3)n2)cc1 (stereo not drawn) | 38.7 | 11.2 | 9.76 | IC50 [3]: > 30 µM; IC50 [4]: > 30 µM; IC50 (Jurkat): 29.5 µM; IC50 (Insulin receptor): > 30 µM; IC50 [16]: 4.71 µM; Activity (A549 [5]): 8%; Activity (A549 [6]): 77%; IC50 (PBMC): 299 µM; Activity (MCF7 [7]): 27%; IC50 [8]: > 30 µM; IC50 [9]: 29 µM; IC50 [10]: 25.6 µM; selectivity ratio [11]: > 10; Activity (MCF7 [12]): 63%; IC50 [13]: > 30 µM; Activity (A549 [14]): 15%; Activity (MCF7 [15]): 10%
Cc1ccc(-c2csc(N3N=C(c4ccc(N5CCCCC5)cc4)CC3c3ccc(Cl)cc3)n2)cc1 (stereo not drawn) | > 100 | > 100 | > 100 | 
Fc1ccc(-c2csc(N3N=C(c4ccc(N5CCCCC5)cc4)CC3c3ccc(Cl)cc3)n2)cc1 (stereo not drawn) | 71.4 | 70.2 | 23.1 | 
O=[N+]([O-])c1ccc(-c2csc(N3N=C(c4ccc(N5CCCCC5)cc4)CC3c3ccc(Cl)cc3)n2)cc1 (stereo not drawn) | > 100 | > 100 | > 100 | 
Fc1ccc(-c2csc(N3N=C(c4ccc(N5CCOCC5)cc4)CC3c3ccc(Cl)cc3)n2)cc1 (stereo not drawn) | 84.4 | 8.95 | 9.59 | IC50 [3]: 3.28 µM; IC50 [4]: 6.96 µM; IC50 (Jurkat): 23.4 µM; IC50 (Insulin receptor): 9.79 µM; IC50 [16]: 23.3 µM; Activity (A549 [5]): 12%; Activity (A549 [6]): 65%; IC50 (PBMC): > 300 µM; Activity (MCF7 [7]): 14%; IC50 [8]: > 30 µM; IC50 [9]: 1.5 µM; IC50 [10]: 10.5 µM; selectivity ratio [11]: > 10; Activity (MCF7 [12]): 78%; IC50 [13]: > 30 µM; Activity (A549 [14]): 23%; Activity (MCF7 [15]): 8%
Clc1ccc(-c2csc(N3N=C(c4ccc(N5CCCCC5)cc4)CC3c3ccc(Cl)cc3)n2)cc1 (stereo not drawn) | > 100 | 46.4 | > 100 | 

The next lines start with results.

IC50 (A-375) [µM] | IC50 (A549 [1]) [µM] | IC50 (MCF7 [2]) [µM] | SMILES | further results
> 100 | > 100 | > 100 | Cc1ccc(-c2csc(N3N=C(c4ccc(N5CCOCC5)cc4)CC3c3ccc(Cl)cc3)n2)cc1 (stereo not drawn) | 
> 100 | > 100 | > 100 | Clc1ccc(C2CC(c3ccc(N4CCCCC4)cc3)=NN2c2nc(-c3ccc4ccccc4c3)cs2)cc1 (stereo not drawn) | 
> 100 | 39.7 | > 100 | Clc1ccc(C2CC(c3ccc(N4CCCCC4)cc3)=NN2c2nc(-c3ccc(Br)cc3)cs2)cc1 (stereo not drawn) | 
> 100 | > 100 | > 100 | O=[N+]([O-])c1ccc(-c2csc(N3N=C(c4ccc(N5CCOCC5)cc4)CC3c3ccc(Cl)cc3)n2)cc1 (stereo not drawn) | 
> 100 | > 100 | > 100 | CS(=O)(=O)c1ccc(-c2csc(N3N=C(c4ccc(N5CCCCC5)cc4)CC3c3ccc(Cl)cc3)n2)cc1 (stereo not drawn) | 
75.9 | 19 | 14.9 | Clc1ccc(-c2csc(N3N=C(c4ccc(N5CCOCC5)cc4)CC3c3ccc(Cl)cc3)n2)cc1 (stereo not drawn) | 
> 100 | > 100 | > 100 | COc1ccc(-c2csc(N3N=C(c4ccc(N5CCCCC5)cc4)CC3c3ccc(Cl)cc3)n2)cc1 (stereo not drawn) | 
27.3 | 22.4 | 8.24 | C#Cc1cccc(Nc2ncnc3cc(OCCOC)c(OCCOC)cc23)c1 [ERLOTINIB] | IC50 (Jurkat): 12.1 µM; Activity (A549 [5]): 9%; Activity (A549 [6]): 72%; IC50 (PBMC): 39.3 µM; Activity (MCF7 [7]): 21%; Activity (MCF7 [12]): 66%; Activity (A549 [14]): 19%; Activity (MCF7 [15]): 13%
> 100 | 33.8 | 22.3 | NC(=S)N1N=C(c2ccc(N3CCCCC3)cc2)CC1c1ccc(Cl)cc1 (stereo not drawn) | 
64.2 | 42 | 23.7 | FC(F)(F)c1ccc(-c2csc(N3N=C(c4ccc(N5CCCCC5)cc4)CC3c3ccc(Cl)cc3)n2)cc1 (stereo not drawn) | 
